{"source": "patent US9243254B2", "about": "“Method for transforming a bacterium belonging to the streptococcus genus by natural competence” (priority 2009, dated 2016)", "system": "S. thermophilus DGCC7909", "test": "Natural transformation in CDM upon addition of synthetic peptide", "type": "cell-based, Streptococcus thermophilus", "conditions": "1 μM LPYFAGCL, 1 μg/mL pUC18_stu0855::P32cat", "method": "Similarly to the protocol used in example 4, various S. thermophilus strains, including LMD-9, CNRZ1066 and LMG18311 used as controls, were pre-cultivated in M17-lactose medium. The cells of the precultures were harvested (5000 g, 9 minutes, 20° C.) and washed twice in CDM and then resuspended in CDM. The washed cells were diluted in fresh CDM medium to obtain an optical density of 0.05, and then incubated at 37° C. After 1.5 h of incubation, in one set of experiment, 1 μM of one of the tested synthetic peptides (LPYFAGCL) (SEQ ID NO: 85) and 1 μg/mL of pGIUD0855cat DNA were added to the culture, whereas 1 μg/mL of DNA but no synthetic peptide was added to the second set of experiment. Plasmid pGIUD0855cat is a pUC18-derivative containing a chloramphenicol resistance cassette flanked by 1-kb fragments corresponding to the upstream and downstream regions of stu0855. Upon transformation, it promotes the genetic replacement of stu0855 by P32-cat through homologous recombination (FIG. 7). The cultures were grown during 6 hours and serial dilutions were plated on the surface of M17-lactose agar medium containing 5 μg/mL of chloramphenicol to measure transformation efficiency. Transformed S. thermophilus cells were selected at 37° C.; when transformants were obtained, the transformation efficiency was calculated and is given in Table 9.", "data": [{"sequence": "LPYFAGCL (fragment) [synthetic peptide corresponding to a C-terminal fragment of Shp316]", "values": [{"measurement": "Transformation rate, With peptide addition", "result": "4.5 × 10^−3"}]}]}
